Source: patent US20200397763A1, “PARENTERAL FORMULATION MATERIALS AND METHODS FOR 40-O-CYCLIC HYDROCARBON ESTERS AND RELATED STRUCTURES” (Biotronik AG, priority 2018, published 2020)

Tests used:
[1] = Rat intravenous PK of the EtOH / SEQ ID NO:1 formulation without nanoparticles; type: in vivo, Sprague-Dawley rats; settings: for AUC(0-inf): Sprague-Dawley, rat, rats, intravenous 15 mg/kg, EtOH / 20% SEQ ID NO:1 in saline, without nanoparticles, LCMS
Description: It is understood the concentration may be optimized according to desired dosing schemes, routes of administration, etc.
The PK studies were conducted around the formulation from Example I. Specifically, Sprague-Dawley rats were dosed intravenously at 15 mg/kg, with blood samples being collected prior to dosing, in order to establish baseline, then post dosing at set intervals up to 24 hours. Drug bioanalytical measurements were conducted by LCMS.
Results (AUCinf) reported in the prior art are from blood plasma, whereas the present results are from both plasma and whole blood. This was done to allow for direct comparison to the previous studies. Drug area under the curve versus time ((AUCinf), total drug dose exposure) was calculated accordingly.
Sirolimus (rapamycin) was used and formulated in accordance with those steps described previously at Example I. Specifically, sirolimus was combined with SEQ ID NO:1 but without nanoparticles and tested against the studies shown in the prior art, namely, sirolimus formulated with SEQ ID NO:1 but with nanoparticles.

[2] = prior art; blood plasma; 15 mg/kg; SEQ ID NO:1 with nanoparticles; cited from earlier work

AUC(0-inf) ([1]; plasma): 5180 ± 130 ng·h/mL
AUC(0-inf) ([1]; whole blood): 5060 ± 541 ng·h/mL
difference between the AUCinf results of the current studies and the prior art ([1]; sirolimus without nanoparticles (current) versus with nanoparticles (prior art)): 20%
Compound: CO[C@H]1C[C@@H]2CC[C@@H](C)[C@@](O)(O2)C(=O)C(=O)N2CCCC[C@H]2C(=O)O[C@H]([C@H](C)C[C@@H]2CC[C@@H](O)[C@H](OC)C2)CC(=O)[C@H](C)/C=C(\C)[C@@H](O)[C@@H](OC)C(=O)[C@H](C)C[C@H](C)/C=C/C=C/C=C/1C [Sirolimus, rapamycin]
AUCinf [2]: 6017 ± 647 ng·h/mL
